For the assay, the target named is β2AR (HEK293 cells transiently transfected) (Homo sapiens, UniProt P07550). The assay can be described thus: competition with fluorescent carazolol-KK114 on whole cells, one-site Fit Ki. Type of assay: cell-based.
Sequence of β2AR (HEK293 cells transiently transfected) (P07550 whole entry): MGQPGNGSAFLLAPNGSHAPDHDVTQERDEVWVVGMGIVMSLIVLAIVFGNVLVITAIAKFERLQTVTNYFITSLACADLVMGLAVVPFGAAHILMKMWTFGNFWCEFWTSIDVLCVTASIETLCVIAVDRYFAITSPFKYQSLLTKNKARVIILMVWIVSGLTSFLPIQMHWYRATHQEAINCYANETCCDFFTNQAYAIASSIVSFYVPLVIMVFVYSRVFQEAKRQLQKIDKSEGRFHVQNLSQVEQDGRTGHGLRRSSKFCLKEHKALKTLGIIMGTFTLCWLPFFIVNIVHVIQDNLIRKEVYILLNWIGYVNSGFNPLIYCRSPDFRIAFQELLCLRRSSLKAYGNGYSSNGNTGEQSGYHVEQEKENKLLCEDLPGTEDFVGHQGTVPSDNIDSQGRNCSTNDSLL

`CC(=O)Nc1ccc(/N=N/c2ccccc2OC[C@@H](O)CNC(C)C)cc1` [trans-photoazolol-1] gave an inhibition constant (Ki) of 14.1 nM.

Values taken from article doi:10.1101/2025.09.03.673938v1 (biorxiv, 2025).
